Patent publication US9035059B2, “Nitrogen-containing condensed heterocyclic compound” (TAISHO PHARMACEUTICAL CO., LTD., priority 2011, dated 2015)

These compounds were tested against human MGAT2 (Homo sapiens (Human), UniProt Q3SYC2) (assay: Test Example 1: Test of MGAT2 inhibitory action (human MGAT2 enzyme fraction from Sf9 cells, free CoA detected by CPM fluorescence)). Conditions: human MGAT2 enzyme fraction expressed in Sf9 insect cells, 0.5 μg/ml, 2-monooleoyl glycerol 0.78 μM, oleoyl-CoA 5.3 μM, room temperature 20 min, listed as 10-6, read-out: Activity Value [nM] (IC50, concentration at which 50% of produced free CoA was inhibited).
human MGAT2, sequence (Q3SYC2 whole entry): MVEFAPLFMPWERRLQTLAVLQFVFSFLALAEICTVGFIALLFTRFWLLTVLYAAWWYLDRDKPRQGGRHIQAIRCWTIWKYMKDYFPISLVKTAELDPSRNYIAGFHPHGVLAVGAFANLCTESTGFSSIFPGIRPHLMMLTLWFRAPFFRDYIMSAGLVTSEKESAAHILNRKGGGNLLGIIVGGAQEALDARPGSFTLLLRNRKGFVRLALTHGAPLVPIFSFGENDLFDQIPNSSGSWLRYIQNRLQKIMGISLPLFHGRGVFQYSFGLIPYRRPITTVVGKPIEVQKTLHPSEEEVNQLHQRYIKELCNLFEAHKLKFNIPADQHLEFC
Assay type: biochemical
Procedure: The MGAT2 inhibitory action of the inventive compound was measured by the methods described in Test Examples as shown below. The MGAT enzyme activity was measured based on the amount of an indicator, free Coenzyme A (CoA) which is generated by the reaction shown below, using a sulfhydryl reactive pigment (7-diethylamino-3-(4-maleimidophenyl)-4-methylcoumarin; hereinafter, sometimes abbreviated as CPM).
A test for MGAT2 inhibitory action of test compounds was conducted in accordance with a partially modified version of the method described in John F. Lockwood et al., Am. J. Physiol. Endocrinol. Metab., 2003, 285, E927.
Bac-to-Bac Baculovirus Expression System (Life Technologies Japan) was used to express human MGAT2 in insect cells (Sf9) (Life Technologies Japan). These cells were sonicated and centrifuged at 100,000 g×1 hr to give a precipitate. The precipitate was used as a human MGAT2 enzyme fraction in this assay.
This test was conducted using a black flat-bottom 96-well plate (Corning). A buffer solution with final concentrations of 5 mM magnesium chloride, 100 mM sucrose and 100 mM Tris-HCl (pH=7.5) was prepared and test compounds prepared in various concentrations using dimethyl sulfoxide were added thereto to give a final dimethyl sulfoxide concentration of 1%. The MGAT2 enzyme fraction was added thereto to give a final concentration of 0.5 μg/ml and phosphatidylcholine, 2-monooleoyl glycerol and oleoyl-CoA were added thereto to give final concentrations of 7.5 μM, 0.78 μM and 5.3 μM, respectively, before starting a reaction. The reaction was performed at room temperature for 20 min.
After 20 min, a CPM-containing solution was added thereto to give a final concentration of 5 μM before stopping the MGAT reaction. After 1 hr, a fluorescence detector (Infinite 200 from Tecan Japan) was used to measure the CPM fluorescence value of each well (excitation 380 nm, emission 460 nm).
With `CC(Cc1ccc(C(C)(C)C)cc1)N1CCc2cc(S(=O)(=O)Nc3ccc(CCCC4CCCC4)cc3F)ccc2C1` (single isomer, unassigned) [Working Example 10-6] the IC50 was 44 nM.

Same assay, conditions: human MGAT2 enzyme fraction expressed in Sf9 insect cells, 0.5 μg/ml, 2-monooleoyl glycerol 0.78 μM, oleoyl-CoA 5.3 μM, room temperature 20 min, listed as 10-12, read-out: Activity Value [nM] (IC50, concentration at which 50% of produced free CoA was inhibited)
`CC(Cc1ccc(C(C)(C)C)cc1)N1CCc2cc(S(=O)(=O)Nc3ccc(OCCCCCc4ccccc4)cc3F)ccc2C1` (single isomer, unassigned) [Working Example 10-12] showed an IC50 of 42 nM.

Same assay, conditions: human MGAT2 enzyme fraction expressed in Sf9 insect cells, 0.5 μg/ml, 2-monooleoyl glycerol 0.78 μM, oleoyl-CoA 5.3 μM, room temperature 20 min, listed as 10-13, read-out: Activity Value [nM] (IC50, concentration at which 50% of produced free CoA was inhibited)
In the case of `CC(Cc1ccc(C(C)(C)C)cc1)N1CCc2cc(S(=O)(=O)Nc3ccc(OCCCC4CCCCC4)cc3F)ccc2C1` (single isomer, unassigned) [Working Example 10-13], the IC50 is reported as 66 nM.

Same assay, conditions: human MGAT2 enzyme fraction expressed in Sf9 insect cells, 0.5 μg/ml, 2-monooleoyl glycerol 0.78 μM, oleoyl-CoA 5.3 μM, room temperature 20 min, read-out: Activity Value [nM] (IC50, concentration at which 50% of produced free CoA was inhibited)
In the case of `CC(C)(C)c1ccc(CCN2CCc3cc(S(=O)(=O)Nc4ccc(OCCCc5ccccc5)cc4F)ccc3C2)cn1` [Working Example 6-45], the IC50 is reported as 286 nM. In the case of `CCCCCCOc1ccc(NS(=O)(=O)c2ccc3c(c2)CCN(CCc2ccc(C(C)(C)C)cc2)C3)c(F)c1` [Working Example 8-3], the IC50 is reported as 133 nM. `C/C=C\CCCCCOc1ccc(NS(=O)(=O)c2ccc3c(c2)CN(C(=O)Nc2ccc(C(C)(C)C)cc2)C3)c(F)c1` [19-4] was tested, and the IC50 was 2 nM. With `CC(C)(C)c1ccc(NC(=O)N2Cc3ccc(S(=O)(=O)Nc4ccc(OCCC5CC5)cc4F)cc3C2)cc1` [18-31] the IC50 was 266 nM. `CC(C)(C)c1ccc(NC(=O)N2Cc3ccc(S(=O)(=O)Nc4ccc(OCCOc5ccc(F)cc5)cc4F)cc3C2)cc1` [18-19] gave an IC50 of 125 nM.

What follows are compounds tested against MGAT2 (microsomal fraction of human small intestine) (Homo sapiens (Human), UniProt Q3SYC2) (assay: Test Example 2: Test of MGAT2 inhibitory action (microsomal fraction of human small intestine, 3H-labeled 2-monooleoyl glycerol)). Conditions: microsomal fraction of human small intestine 5 μg/ml; 4 μM oleoyl-CoA, 1.25 μM 2-monooleoyl glycerol, 0.125 μM 3H-labeled 2-monooleoyl glycerol; room temperature 30 min; read-out: Activity Value [nM] (IC50, concentration at which 50% of the products 3H-labeled dioleoyl glycerol and trioleoyl glycerol was inhibited).
MGAT2 (microsomal fraction of human small intestine), sequence (Q3SYC2 whole entry): as above
Assay type: biochemical
Procedure: An MGAT2 inhibition test for test compounds was conducted in accordance with a partially modified version of the method described in John F. Lockwood et al., Am. J. Physiol. Endocrinol. Metab., 2003, 285, E927.
A 10 mg/mL microsomal fraction of human small intestine (duodenum- and jejunum-derived fraction purchased from Becton Dickinson Japan) was used as an enzyme source.
The test was conducted using a flat-bottom 96-well plate (Corning).
A buffer solution with final concentrations of 5 mM magnesium chloride, 1.25 mg/ml bovine serum albumin and 100 mM Tris-HCl (pH=7.5) was prepared and the microsomal fraction of human small intestine was added thereto to give a final concentration of 5 μg/ml. […] Thereafter, final concentrations of 5 mM magnesium chloride, 1.25 mg/ml bovine serum albumin, 100 mM Tris-HCl (pH=7.5), 4 μM oleoyl-CoA, 1.25 μM 2-monooleoyl glycerol and 0.125 μM ^3H-labeled 2-monooleoyl glycerol (Muromachi Yakuhin Co., Ltd.) were added thereto to give a total volume of 100 μl. This mixture was reacted at room temperature for 30 min.
The reaction was stopped by adding an equal amount of isopropanol to the reaction mixture. The substrate contained in the reaction mixture (^3H-labeled 2-monooleoyl glycerol) and the reaction products (^3H-labeled dioleoyl glycerol and trioleoyl glycerol) were separated by adsorbing them onto an octadecylsilane resin (Wako gel 50C18) (Wako Pure Chemical Industries, Ltd.), removing the substrate by use of 80% isopropanol, and then eluting the reaction products with 100% isopropanol. The amounts of the reaction products were measured with MicroBeta (PerkinElmer Japan).
Compound `O=S(=O)(Nc1ccc(OCCC2CCOCC2)cc1F)c1ccc2c(c1)CCN(Cc1cnc(C(F)(F)F)nc1)C2` [Working Example 6-83] has an IC50 of 193 nM. Compound `CC(C)(C)c1ccc(CCN2CCc3cc(S(=O)(=O)Nc4ccc(OCC[C@H]5CCOC[C@@H]5F)cc4F)ccc3C2)cc1` [Working Example 8-15] has an IC50 of 204 nM. Work on `CC(C)(C)c1ccc(CCN2CCc3cc(S(=O)(=O)Nc4ccc(OCC[C@H]5CCOC[C@H]5F)cc4F)ccc3C2)cc1` [Working Example 8-11] yielded an IC50 of 169 nM. `Cc1c(CN2CCc3cc(S(=O)(=O)Nc4ccc(CCCC5CCCC5)cc4F)ccc3C2)cnn1-c1ccccc1` [Working Example 7-70] showed an IC50 of 81 nM. With `CC(c1ccc(OCC(F)(F)F)nc1)N1CCc2cc(S(=O)(=O)Nc3ccc(CCCC4CCCC4)cc3F)ccc2C1` (centres unmarked) [23-6] the IC50 was 115 nM. With `CC(C)(C)c1ccc(CCN2CCc3cc(S(=O)(=O)Nc4ccc(OCCC5CCOC5)cc4F)ccc3C2)cc1` (centres unmarked) [Working Example 8-10] the IC50 was 148 nM. Compound `CC(C)(C)c1cnc(CCN2CCc3cc(S(=O)(=O)Nc4ccc(CCCC5CCCC5)cc4F)ccc3C2)cn1` [Working Example 9-23] has an IC50 of 46 nM. `CC(C)(C)c1ccc(C2(N3CCc4cc(S(=O)(=O)Nc5ccc(CCCC6CCCC6)cc5F)ccc4C3)CC2)cn1` [25-2] showed an IC50 of 60 nM. `CC(C)(C)c1ccc(CCN2CCc3cc(S(=O)(=O)Nc4ccc(OCCOC5CCCCC5)cc4F)ccc3C2)cc1` [Working Example 8-13] gave an IC50 of 137 nM. `O=S(=O)(Nc1ccc(CCCC2CCCC2)cc1F)c1ccc2c(c1)CCN(Cc1cnc(-c3ccc(Cl)cc3)s1)C2` [Working Example 7-74] was tested, and the IC50 was 105 nM. Compound `CC(C)(C)c1ccc(CCN2CCc3cc(S(=O)(=O)Nc4ccc(OCCCOCC(F)(F)F)cc4F)ccc3C2)cc1` [Working Example 8-12] has an IC50 of 158 nM. In the case of `CC(c1cnc(C(F)(F)F)nc1)N1CCc2cc(S(=O)(=O)Nc3ccc(CCCC4CCCC4)cc3F)ccc2C1` (single isomer, unassigned) [24-9], the IC50 is reported as 131 nM. With `Cc1nn(C)c(C)c1CN1CCc2cc(S(=O)(=O)Nc3ccc(CCCC4CCCC4)cc3F)ccc2C1` [Working Example 7-82] the IC50 was 189 nM. For `CC(C)(C)c1ccc(CC2(N3CCc4cc(S(=O)(=O)Nc5ccc(CCCC6CCCC6)cc5F)ccc4C3)CC2)cc1` [25-1, 2-[1-(4-tert-Butylbenzyl)cyclopropyl]-N-[4-(3-cyclopentylpropyl)-2-fluorophenyl]-1,2,3,4-tetrahydroisoquinoline-6-sulfonamide], the IC50 was 200 nM. In the case of `CC(C)(C)c1ccc(CCN2CCc3cc(S(=O)(=O)Nc4ccc(OCCC5CCCC5)cc4F)ccc3C2)cc1` [Working Example 8-5], the IC50 is reported as 29 nM. `CC(C)(C)c1cc(CN2CCc3cc(S(=O)(=O)Nc4ccc(OCCC5CCOCC5)cc4F)ccc3C2)ccn1` [Working Example 8-7] gave an IC50 of 235 nM. Work on `CCCn1cc(CN2CCc3cc(S(=O)(=O)Nc4ccc(CCCC5CCCC5)cc4F)ccc3C2)cn1` [Working Example 2-8] yielded an IC50 of 213 nM. `CC(c1ccnc(C(C)(C)C)c1)N1CCc2cc(S(=O)(=O)Nc3ccc(CCCC4CCCC4)cc3F)ccc2C1` (centres unmarked) [23-3] showed an IC50 of 13 nM. With `Cc1cc(CN2CCc3cc(S(=O)(=O)Nc4ccc(CCCC5CCCC5)cc4F)ccc3C2)c(C)n1-c1cccc(C(F)(F)F)c1` [Working Example 7-81] the IC50 was 45 nM. In the case of `CC(c1cnc(C(F)(F)F)nc1)N1CCc2cc(S(=O)(=O)Nc3ccc(CCCC4CCCC4)cc3F)ccc2C1` (single isomer, unassigned) [24-10], the IC50 is reported as 100 nM. `Cc1ccc(-n2nc(C)c(CN3CCc4cc(S(=O)(=O)Nc5ccc(CCCC6CCCC6)cc5F)ccc4C3)c2C)cc1` [Working Example 7-80] was tested, and the IC50 was 66 nM. Compound `CC(C)(C)c1ccc(CC(C)(C)N2CCc3cc(S(=O)(=O)Nc4ccc(OCCC5CCOCC5)cc4F)ccc3C2)cc1` [20-3] has an IC50 of 223 nM. With `CC(C)(C)n1cc(CN2CCc3cc(S(=O)(=O)Nc4ccc(CCCC5CCCC5)cc4F)ccc3C2)cn1` [Working Example 2-4] the IC50 was 92 nM. With `CC(C)n1cc(CN2CCc3cc(S(=O)(=O)Nc4ccc(CCCC5CCCC5)cc4F)ccc3C2)cn1` [Working Example 2-5] the IC50 was 180 nM. Work on `CC(C)(C)c1cc(CCN2CCc3cc(S(=O)(=O)Nc4ccc(CCCC5CCCC5)cc4F)ccc3C2)ccn1` [Working Example 6-90] yielded an IC50 of 164 nM. For `CC(C)Cn1cc(CN2CCc3cc(S(=O)(=O)Nc4ccc(CCCC5CCCC5)cc4F)ccc3C2)cn1` [Working Example 2-6], the IC50 was 174 nM. `CC(C)(C)c1ccc(CCN2CCc3cc(S(=O)(=O)Nc4ccc(OCCCOC5CCCC5)cc4F)ccc3C2)cc1` [Working Example 8-14] showed an IC50 of 68 nM. With `CC(c1cnc(C(C)(C)C)nc1)N1CCc2cc(S(=O)(=O)Nc3ccc(CCCC4CCCC4)cc3F)ccc2C1` (single isomer, unassigned) [24-8] the IC50 was 34 nM. `CC(C)(C)c1ccc(CCN2CCc3cc(S(=O)(=O)Nc4ccc(OCCOCC5CCCO5)cc4F)ccc3C2)cc1` (centres unmarked) [Working Example 8-9] gave an IC50 of 160 nM. For `O=S(=O)(Nc1ccc(CCCC2CCCC2)cc1F)c1ccc2c(c1)CCN(CCc1ccc(C(F)(F)F)cn1)C2` [Working Example 9-24], the IC50 was 46 nM. Compound `CC(C)(C)c1ccc(CCN2CCc3cc(S(=O)(=O)Nc4ccc(OCCOCC5CCCCO5)cc4F)ccc3C2)cc1` (centres unmarked) [Working Example 8-8] has an IC50 of 178 nM. In the case of `CC(C)(C)c1ccc(CC(C)(C)N2CCc3cc(S(=O)(=O)Nc4ccc(CCCC5CCCC5)cc4F)ccc3C2)cc1` [20-2], the IC50 is reported as 14 nM. In the case of `CC(C)(C)n1cc(CN2CCc3cc(S(=O)(=O)Nc4ccc(OCCC5CCOCC5)cc4F)ccc3C2)cn1` [Working Example 2-10], the IC50 is reported as 198 nM.
